Measurements: PubChem BioAssay (NCI)
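Step 1: Grow cells in 96-well plates. Step 2: Expose to compound for 48 hours at 5 concentrations. Step 3: Interpolate endpoints linearly; if unreached, use highest concentration. The concentration for 50% growth inhibition is given as GI50. The concentration for full growth arrest is given as TGI.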

How the values were obtained:
Test in all cases: NCI-60 cell line screen, 48 h
[1] = system: COLO 205 colon
[2] = system: HCC-2998 colon
[3] = system: RXF 393 renal
[4] = system: LOX IMVI melanoma
[5] = system: SNB-19 CNS
[6] = system: HS 578T breast
[7] = system: KM12 colon
[8] = system: ACHN renal
[9] = system: IGROV1 ovarian
[10] = system: SK-MEL-28 melanoma
[11] = system: RPMI-8226 leukemia
[12] = system: 786-0 renal
[13] = system: PC-3 prostate
[14] = system: SR leukemia
[15] = system: HOP-92 NSCLC
[16] = system: UO-31 renal
[17] = system: SK-MEL-5 melanoma
[18] = system: SF-268 CNS
[19] = system: MDA-MB-435
[20] = system: A498 renal
[21] = system: SNB-75 CNS
[22] = system: HT29 colon
[23] = system: EKVX NSCLC
[24] = system: TK-10 renal
[25] = system: NCI-H226 lung
[26] = system: MALME-3M melanoma
[27] = system: OVCAR-4 ovarian
[28] = system: SK-MEL-2 melanoma
[29] = system: BT-549 breast
[30] = system: DU-145 prostate
[31] = system: CCRF-CEM leukemia
[32] = system: CAKI-1 renal
[33] = system: HCT-116 colon
[34] = system: HCT-15 colon
[35] = system: NCI-H522 lung
[36] = system: K-562 leukemia
[37] = system: NCI-H23 lung
[38] = system: SF-295 CNS
[39] = system: UACC-62 melanoma
[40] = system: UACC-257 melanoma
[41] = system: OVCAR-3 ovarian
[42] = system: SF-539 CNS
[43] = system: MDA-MB-231 breast
[44] = system: M14 melanoma
[45] = system: OVCAR-5 ovarian
[46] = system: MOLT-4 leukemia
[47] = system: OVCAR-8 ovarian
[48] = system: A549 NSCLC
[49] = system: U251 CNS
[50] = system: HOP-62 NSCLC
[51] = system: SK-OV-3 ovarian
[52] = system: MCF7 breast
[53] = system: NCI/ADR-RES ovarian
[54] = system: NCI-H460 lung
[55] = system: HL-60(TB) leukemia
[56] = system: SN12C renal
[57] = system: T-47D breast
[58] = system: SW-620 colon

Work on `Cc1cc(C)c(CNC(=O)c2cc(-c3ccc(CN4CCOCC4)cc3)cc3c2cnn3C2CCCC2)c(=O)[nH]1` yielded a GI50 [1] of 14.7 µM, a TGI [1] of 34 µM and a GI50 [2] of 16.6 µM. The TGI [2] was 35.5 µM, the GI50 [3] was 14.6 µM and the TGI [3] was 32.6 µM. The GI50 [4] was 15.3 µM, the TGI [4] was 34.2 µM and the GI50 [5] was 24.7 µM. It also gave a TGI [5] of 77.1 µM, a GI50 [6] of 19.1 µM and a TGI [6] of 64 µM. For the same molecule, the GI50 [7] was 18.6 µM, the TGI [7] was 49 µM and the GI50 [8] was 15.1 µM. For the same molecule, the TGI [8] was 34.6 µM, the GI50 [9] was 17.6 µM and the TGI [9] was 67.8 µM. It also gave a GI50 [10] of 15.7 µM, a TGI [10] of 32.4 µM and a GI50 [11] of 13.7 µM. For the same molecule, the TGI [11] was 50.7 µM, the GI50 [12] was 17.6 µM and the TGI [12] was 42.4 µM. It also gave a GI50 [13] of 17.9 µM, a TGI [13] of 54.6 µM and a GI50 [14] of 22.4 µM. The TGI [14] was 65.5 µM, the GI50 [15] was 10.2 µM and the TGI [15] was 27.2 µM. For the same molecule, the GI50 [16] was 8.8 µM, the TGI [16] was 26.6 µM and the GI50 [17] was 13.7 µM. The TGI [17] was 27.3 µM, the GI50 [18] was 13.9 µM and the TGI [18] was 43.8 µM. It also gave a GI50 [19] of 15.9 µM, a TGI [19] of 35 µM and a GI50 [20] of 15.5 µM. The TGI [20] was 34.6 µM, the GI50 [21] was 12.6 µM and the TGI [21] was 32.4 µM. The GI50 [22] was 11.8 µM, the TGI [22] was 27.1 µM and the GI50 [23] was 11.8 µM. The TGI [23] was 28.2 µM, the GI50 [24] was 16.4 µM and the TGI [24] was 35.9 µM. The GI50 [25] was 17.5 µM, the TGI [25] was 37 µM and the GI50 [26] was 16.7 µM. For the same molecule, the TGI [26] was 34.1 µM, the GI50 [27] was 21.3 µM and the TGI [27] was 91.6 µM. It also gave a GI50 [28] of 17.8 µM, a TGI [28] of 35.4 µM and a GI50 [29] of 17.1 µM. For the same molecule, the TGI [29] was 41.7 µM, the GI50 [30] was 21.5 µM and the TGI [30] was 81 µM. For the same molecule, the GI50 [31] was 26.3 µM, the TGI [31] was 97.5 µM and the GI50 [32] was 16.1 µM. For the same molecule, the TGI [32] was 42.2 µM, the GI50 [33] was 18.2 µM and the TGI [33] was 50.2 µM. For the same molecule, the GI50 [34] was 10.2 µM, the TGI [34] was 25.9 µM and the GI50 [35] was 16.2 µM. For the same molecule, the TGI [35] was 30.4 µM, the GI50 [36] was 21.4 µM and the TGI [36] was > 100 µM. The GI50 [37] was 18.5 µM, the TGI [37] was 47.8 µM and the GI50 [38] was 16.6 µM. It also gave a TGI [38] of 36.5 µM, a GI50 [39] of 17.8 µM and a TGI [39] of 43.2 µM. For the same molecule, the GI50 [40] was 21 µM, the TGI [40] was 42.8 µM and the GI50 [41] was 13.4 µM. It also gave a TGI [41] of 30.9 µM, a GI50 [42] of 16.1 µM and a TGI [42] of 34.4 µM. It also gave a GI50 [43] of 19.9 µM, a TGI [43] of 51.7 µM and a GI50 [44] of 18.8 µM. For the same molecule, the TGI [44] was 43.1 µM, the GI50 [45] was 22.1 µM and the TGI [45] was 63.5 µM. For the same molecule, the GI50 [46] was 17.5 µM, the TGI [46] was > 100 µM and the GI50 [47] was 17.3 µM. For the same molecule, the TGI [47] was 57.9 µM, the GI50 [48] was 17.8 µM and the TGI [48] was 41.6 µM. For the same molecule, the GI50 [49] was 15.2 µM, the TGI [49] was 31.7 µM and the GI50 [50] was 18 µM. For the same molecule, the TGI [50] was 39.3 µM, the GI50 [51] was 20.1 µM and the TGI [51] was 44.5 µM. For the same molecule, the GI50 [52] was 10.8 µM, the TGI [52] was 28.8 µM and the GI50 [53] was 15.1 µM. For the same molecule, the TGI [53] was 42.5 µM, the GI50 [54] was 16.1 µM and the TGI [54] was 43 µM. It also gave a GI50 [55] of 16.5 µM, a TGI [55] of 55.2 µM and a GI50 [56] of 19.3 µM. For the same molecule, the TGI [56] was 46.6 µM, the GI50 [57] was 12.9 µM and the TGI [57] was 50.4 µM. The GI50 [58] was 25.3 µM and the TGI [58] was > 100 µM.

`c1cc(N2CCCC2)c2nc(-c3[nH]ncc3Nc3ncnc4[nH]ccc34)[nH]c2c1` showed a GI50 [1] of 0.285 µM, a TGI [1] of 2.03 µM and a GI50 [2] of 0.176 µM. It also gave a TGI [2] of 0.942 µM, a GI50 [3] of 0.0228 µM and a TGI [3] of 0.0929 µM. The GI50 [4] was 0.0254 µM, the TGI [4] was 0.342 µM and the GI50 [5] was 0.0962 µM. It also gave a TGI [5] of 1.58 µM, a TGI [6] of 0.0771 µM and a GI50 [7] of 0.0793 µM. For the same molecule, the TGI [7] was 0.459 µM, the GI50 [8] was 0.0302 µM and the TGI [8] was 0.679 µM. The GI50 [9] was 0.0398 µM, the TGI [9] was 0.239 µM and the GI50 [10] was 0.0992 µM. The TGI [10] was 0.575 µM, the GI50 [11] was 0.254 µM and the TGI [11] was 1.06 µM. It also gave a GI50 [12] of 0.0341 µM, a TGI [12] of 0.56 µM and a GI50 [13] of 0.0261 µM. The TGI [13] was 0.446 µM, the GI50 [14] was 0.0362 µM and the TGI [14] was 26.7 µM. It also gave a GI50 [15] of 0.0298 µM, a TGI [15] of 0.0999 µM and a GI50 [16] of 0.0278 µM. The TGI [16] was 0.267 µM, the GI50 [17] was 0.105 µM and the TGI [17] was 0.424 µM. For the same molecule, the GI50 [18] was 0.108 µM, the TGI [18] was 0.569 µM and the GI50 [19] was 0.0944 µM. For the same molecule, the TGI [19] was 0.511 µM, the GI50 [20] was 0.0202 µM and the TGI [20] was 0.055 µM. The TGI [21] was 0.348 µM, the GI50 [22] was 0.371 µM and the TGI [22] was 3.25 µM. For the same molecule, the GI50 [23] was 0.151 µM, the TGI [23] was 1.7 µM and the GI50 [24] was 0.323 µM. It also gave a TGI [24] of 1.38 µM, a GI50 [25] of 0.041 µM and a TGI [25] of 0.204 µM. For the same molecule, the GI50 [26] was 0.16 µM, the TGI [26] was 0.8 µM and the GI50 [27] was 0.146 µM. The TGI [27] was 1.14 µM, the GI50 [28] was 0.053 µM and the TGI [28] was 0.292 µM. The GI50 [29] was 0.0672 µM, the TGI [29] was 0.736 µM and the GI50 [30] was 0.0853 µM. The TGI [30] was 0.777 µM, the GI50 [31] was 0.028 µM and the TGI [31] was 1.31 µM. The GI50 [32] was 0.022 µM, the TGI [32] was 0.253 µM and the GI50 [33] was 0.0255 µM. It also gave a TGI [33] of 1.61 µM, a GI50 [34] of 0.0765 µM and a TGI [34] of 0.584 µM. For the same molecule, the GI50 [35] was 0.0873 µM, the TGI [35] was 1.12 µM and the GI50 [36] was < 0.0115 µM. The TGI [36] was > 35 µM, the GI50 [37] was 0.0694 µM and the TGI [37] was 0.68 µM. The GI50 [38] was 0.0441 µM, the TGI [38] was 0.337 µM and the GI50 [39] was 0.0554 µM. It also gave a TGI [39] of 0.196 µM, a GI50 [40] of 0.15 µM and a TGI [40] of 1.11 µM. For the same molecule, the GI50 [41] was 0.0441 µM, the TGI [41] was 0.663 µM and the GI50 [42] was 0.0206 µM. It also gave a TGI [42] of 0.256 µM, a GI50 [43] of 0.0628 µM and a TGI [43] of 0.418 µM. It also gave a GI50 [44] of 0.0495 µM, a TGI [44] of 0.483 µM and a GI50 [45] of 0.115 µM. It also gave a TGI [45] of 2.2 µM, a GI50 [46] of 0.0338 µM and a TGI [46] of 4.83 µM. For the same molecule, the GI50 [47] was 0.0847 µM, the TGI [47] was 1.36 µM and the GI50 [48] was 0.0806 µM. It also gave a TGI [48] of 0.455 µM, a GI50 [49] of 0.0474 µM and a TGI [49] of 0.838 µM. It also gave a GI50 [50] of 0.1 µM, a TGI [50] of 2.03 µM and a GI50 [51] of 0.0276 µM. For the same molecule, the TGI [51] was 0.586 µM, the GI50 [52] was 0.0806 µM and the TGI [52] was 0.677 µM. For the same molecule, the GI50 [53] was 0.141 µM, the TGI [53] was 1.26 µM and the GI50 [54] was 0.0908 µM. The TGI [54] was 0.416 µM, the GI50 [55] was 0.0326 µM and the TGI [55] was 0.0916 µM. For the same molecule, the GI50 [56] was 0.0543 µM, the TGI [56] was 0.793 µM and the GI50 [57] was 0.139 µM. The TGI [57] was 5.97 µM, the GI50 [58] was 0.0684 µM and the TGI [58] was 0.548 µM.
